Experimental data taken from US20080039422A1, “Vitamin B12-Containing Compositions and Methods of Use” (Transition Therapeutics Inc., priority 2004, published 2008).
Several values for one entry are separate records, joined by “and”; a condition that tells them apart may be missing. Equal entries are not always repeated.

Assays:
[1] = Stability of CN-Cbl solutions stored at room temperature (3 days, 2 weeks); assay type: physicochemical; details: After 2 weeks at Room Temperature, ethanol 0%, PG 0% (v/v)
[2] = Solubility study (saturated solubility of CN-Cbl, 25°C, 16 hours, UV); assay type: physicochemical
From the text: During the solubility study the following were investigated: • cosolvents (mixtures of ethanol and propylene glycol) • in-situ salt formers • surfactants • pH effects • in-situ salt formers and cosolvents Solubility Study Method
Results of CN-Cbl Solubility in Water and Determination of Equilibrium Time

[3] = Ref. FD4068 29A, buffer Sodium citrate, citric acid, Initial pH 2.64
[4] = Ref. FD4068 30A, buffer Sodium citrate, citric acid, Initial pH 4.75
[5] = Ref. FD4068 30B, buffer Disodium hydrogen phosphate, sodium dihydrogen phosphate, Initial pH 7.03
[6] = Ref. FD4068 31A, buffer Diethanolamine, hydrochloric acid, Initial pH 8.93

Question: With cyanocobalamin [CN-Cbl] as the substance, how does the “Conc of CN-Cbl” value ([1]; challenge 50 mg/mL) read?
Answer: The value was 11.46 mg/mL.

Question: What about the “Conc of CN-Cbl” value ([1]; challenge 75 mg/mL) of the same substance?
Answer: The value was 12.31 mg/mL.

Question: What about the “Saturated Solubility” value ([2]; 0.1 M Choline (12.12 mg/ml), Initial pH 12.54) of the same substance?
Answer: The value was 29.5 mg/mL.

Question: And the “Saturated Solubility” value ([2]; 0.1 M Diethanolamine (10.51 mg/ml), Initial pH 10.80)?
Answer: Its value is 18.1 mg/mL.

Question: What about the “Saturated Solubility” value ([2]; 0.1 M L-arginine (17.42 mg/ml), Initial pH 10.88) of the same substance?
Answer: The value was 18.2 mg/mL.

Question: What about the “Saturated Solubility” value ([2]; 0.1 M L-lysine (16.42 mg/ml), Initial pH 9.60) of the same substance?
Answer: Its value is 16.3 mg/mL.

Question: What about the “Saturated Solubility” value ([2]; 0.1 M Meglumine (19.52 mg/ml), Initial pH 11.00) of the same substance?
Answer: The value was 18.0 mg/mL.

Question: What about the “Saturated Solubility” value ([2]; 0.1 M Triethanolamine (14.92 mg/ml), Initial pH 10.13) of the same substance?
Answer: Its value is 18.6 mg/mL.

Question: What about the “Saturated Solubility” value ([2]; 0.1 M Triethylamine (10.12 mg/ml), Initial pH 11.64) of the same substance?
Answer: Its value is 24.9 mg/mL.

Question: And the “Saturated Solubility” value ([2]; Ref. FD4068 14A, Propylene glycol 30% v/v, Ethanol 5% v/v)?
Answer: The value was 36.6 mg/mL.

Question: What about the “Saturated Solubility” value ([2]; Ref. FD4068 15A, Propylene glycol 32% v/v, Ethanol 5% v/v) of the same substance?
Answer: Its value is 39.8 mg/mL.

Question: And the “Saturated Solubility” value ([2]; Ref. FD4068 15B, Propylene glycol 34% v/v, Ethanol 5% v/v)?
Answer: Its value is 39.1 mg/mL.

Question: What about the “Saturated Solubility” value ([2]; Ref. FD4068 15C, Propylene glycol 36% v/v, Ethanol 5% v/v) of the same substance?
Answer: Its value is 41.8 mg/mL.

Question: And the “Saturated Solubility” value ([2]; Ref. FD4068 16A, Propylene glycol 38% v/v, Ethanol 5% v/v)?
Answer: Its value is 45.5 mg/mL.

Question: And the “Saturated Solubility” value ([2]; Ref. FD4068 16B, Propylene glycol 40% v/v, Ethanol 5% v/v)?
Answer: Its value is 48.1 mg/mL.

Question: What about the “Saturated Solubility” value ([2]; Ref. FD4068 16C, Propylene glycol 30% v/v, Ethanol 10% v/v) of the same substance?
Answer: Its value is 45.6 mg/mL.

Question: What about the “Saturated Solubility” value ([2]; Ref. FD4068 16D, Propylene glycol 32% v/v, Ethanol 10% v/v) of the same substance?
Answer: Its value is 45.8 mg/mL.

Question: What about the “Saturated Solubility” value ([2]; Ref. FD4068 17A, Propylene glycol 34% v/v, Ethanol 10% v/v) of the same substance?
Answer: The value was 47.8 mg/mL.

Question: What about the “Saturated Solubility” value ([2]; Ref. FD4068 17B, Propylene glycol 36% v/v, Ethanol 10% v/v) of the same substance?
Answer: The value was 51.0 mg/mL.

Question: And the “Saturated Solubility” value ([2]; Ref. FD4068 17C, Propylene glycol 38% v/v, Ethanol 10% v/v)?
Answer: The value was 52.2 mg/mL.

Question: What about the “Saturated Solubility” value ([2]; Ref. FD4068 17D, Propylene glycol 40% v/v, Ethanol 10% v/v (no surfactant)) of the same substance?
Answer: Its value is 53.8 mg/mL.

Question: And the “Saturated Solubility” value ([2]; Ref. FD4068 26A, 5% w/v Polysorbate 80, 40% v/v propylene glycol, 10% v/v ethanol)?
Answer: The value was 49.0 mg/mL.

Question: And the “Saturated Solubility” value ([2]; Ref. FD4068 26B, 5% w/v Polysorbate 20, 40% v/v propylene glycol, 10% v/v ethanol)?
Answer: Its value is 46.5 mg/mL.

Question: What about the “Saturated Solubility” value ([2]; Ref. FD4068 26C, 5% w/v Paloxamer 188, 40% v/v propylene glycol, 10% v/v ethanol) of the same substance?
Answer: Its value is 45.1 mg/mL.

Question: And the “Saturated Solubility” value ([2]; Ref. FD4068 27A, 5% w/v Cremophor RH40, 40% v/v propylene glycol, 10% v/v ethanol)?
Answer: The value was 47.1 mg/mL.

Question: What about the “Saturated Solubility” value [2, 3] of the same substance?
Answer: The value was 15.3 mg/mL.

Question: What about the “pH of CN-Cbl Solution” value [2, 3] of the same substance?
Answer: The value was 2.89.

Question: And the “Saturated Solubility” value [2, 4]?
Answer: The value was 15.0 mg/mL.

Question: And the “pH of CN-Cbl Solution” value [2, 4]?
Answer: Its value is 4.83.

Question: What about the “Saturated Solubility” value [2, 5] of the same substance?
Answer: Its value is 13.6 mg/mL.

Question: And the “pH of CN-Cbl Solution” value [2, 5]?
Answer: The value was 7.02.

Question: And the “Saturated Solubility” value [2, 6]?
Answer: The value was 17.5 mg/mL.

Question: And the “pH of CN-Cbl Solution” value [2, 6]?
Answer: Its value is 8.80.

Question: And the “pH of CN-Cbl Solution” value ([2]; Ref. FD4068 33, 0.1 M Choline, 40% v/v propylene glycol, 10% v/v ethanol)?
Answer: Its value is 12.61.

Question: And the “Saturated Solubility” value ([2]; Ref. FD4068 33, Choline 0.100 M (12.12 mg/ml), 40% v/v propylene glycol, 10% v/v ethanol)?
Answer: Its value is 91.8 mg/ml and 0.068 M.

Question: And the “pH of CN-Cbl Solultion” value ([2]; Ref. FD4068 33, Choline 0.100 M, 40% v/v propylene glycol, 10% v/v ethanol, Initial pH 12.68)?
Answer: The value was 12.6 and 12.61.

Question: And the “pH of CN-Cbl Solution” value ([2]; Ref. FD4068 34, 0.1 M Triethylamine, 40% v/v propylene glycol, 10% v/v ethanol)?
Answer: Its value is 10.97.

Question: And the “Saturated Solubility” value ([2]; Ref. FD4068 38A, 10% v/v Ethanol, 40% v/v Propylene Glycol, 0.1 M Choline, pH adjusted with hydrochloric acid, Initial pH 8.58)?
Answer: The value was 60.3 mg/mL.

Question: What about the “pH of CN-Cbl Solution” value ([2]; Ref. FD4068 38A, 10% v/v Ethanol, 40% v/v Propylene Glycol, 0.1 M Choline, Initial pH 8.58) of the same substance?
Answer: Its value is 8.10.

Question: What about the “Saturated Solubility” value ([2]; Ref. FD4068 38B, 10% v/v Ethanol, 40% v/v Propylene Glycol, 0.1 M Choline, pH adjusted with hydrochloric acid, Initial pH 7.85) of the same substance?
Answer: The value was 59.4 mg/mL.

Question: What about the “pH of CN-Cbl Solution” value ([2]; Ref. FD4068 38B, 10% v/v Ethanol, 40% v/v Propylene Glycol, 0.1 M Choline, Initial pH 7.85) of the same substance?
Answer: Its value is 7.70.

Question: What about the “Saturated Solubility” value ([2]; Ref. FD4068 39B, 10% v/v Ethanol, 40% v/v Propylene Glycol, 0.1 M Choline, pH adjusted with hydrochloric acid, Initial pH 8.99) of the same substance?
Answer: The value was 63.1 mg/mL.

Question: What about the “pH of CN-Cbl Solution” value ([2]; Ref. FD4068 39B, 10% v/v Ethanol, 40% v/v Propylene Glycol, 0.1 M Choline, Initial pH 8.99) of the same substance?
Answer: The value was 8.01.

Question: What about the “Saturated Solubility” value ([2]; Ref. FD4068 39C, 10% v/v Ethanol, 40% v/v Propylene Glycol, 0.1 M Choline, pH adjusted with hydrochloric acid, Initial pH 7.43) of the same substance?
Answer: The value was 63 mg/mL.

Question: And the “pH of CN-Cbl Solution” value ([2]; Ref. FD4068 39C, 10% v/v Ethanol, 40% v/v Propylene Glycol, 0.1 M Choline, Initial pH 7.43)?
Answer: The value was 8.00.

Question: What about the “Saturated Solubility” value ([2]; Ref. FD4068 42A, Choline 0.055 M (6.71 mg/ml), 40% v/v propylene glycol, 10% v/v ethanol) of the same substance?
Answer: Its value is 80.8 mg/ml and 0.060 M.

Question: What about the “pH of CN-Cbl Solultion” value ([2]; Ref. FD4068 42A, Choline 0.055 M, 40% v/v propylene glycol, 10% v/v ethanol, Initial pH 12.49) of the same substance?
Answer: Its value is 12.44.

Question: What about the “Saturated Solubility” value ([2]; Ref. FD4068 42B, Choline 0.068 M (8.23 mg/ml), 40% v/v propylene glycol, 10% v/v ethanol) of the same substance?
Answer: Its value is 82.8 mg/ml and 0.061 M.

Question: What about the “pH of CN-Cbl Solultion” value ([2]; Ref. FD4068 42B, Choline 0.068 M, 40% v/v propylene glycol, 10% v/v ethanol, Initial pH 12.63) of the same substance?
Answer: Its value is 12.53.

Question: What about the “Saturated Solubility” value ([2]; Ref. FD4068 43A, Choline 0.111 M (13.41 mg/ml), 40% v/v propylene glycol, 10% v/v ethanol) of the same substance?
Answer: Its value is 92.1 mg/ml and 0.068 M.
